Test results taken from patent publication US8466291B2, “1,5-dideoxy-1,5-imino-D-glucitol compounds” (Academia Sinica, priority 2008, dated 2013).

Experiments:
Human HEX B = biological target: T1, Human HEX B (Homo sapiens, UniProt P07686); experiment: Michaelis-Menten/Lineweaver-Burk kinetic inhibition of Hex B with 4MU-NAG substrate; assay type: biochemical
T1 construct: Hex B protein (isolated from human placenta) was purchased from Sigma Co; purchased Sigma Co; host or cells: human placenta
T1 sequence (P07686 315-556 limits assumed): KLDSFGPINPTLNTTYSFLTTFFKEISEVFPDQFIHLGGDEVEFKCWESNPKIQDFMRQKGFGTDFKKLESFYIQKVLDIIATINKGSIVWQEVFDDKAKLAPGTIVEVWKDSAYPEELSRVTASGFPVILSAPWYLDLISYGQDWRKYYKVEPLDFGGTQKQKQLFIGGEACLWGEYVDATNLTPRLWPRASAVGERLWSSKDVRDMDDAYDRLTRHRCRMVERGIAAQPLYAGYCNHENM
T1 sequence (P07686 122-311 limits assumed): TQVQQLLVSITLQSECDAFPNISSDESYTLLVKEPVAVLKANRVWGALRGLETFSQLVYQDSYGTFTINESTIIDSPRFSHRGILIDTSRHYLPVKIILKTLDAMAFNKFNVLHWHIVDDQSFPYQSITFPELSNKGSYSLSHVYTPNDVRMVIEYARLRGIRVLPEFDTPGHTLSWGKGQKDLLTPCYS
T1 sequence (P07686 50-107 partner limits assumed): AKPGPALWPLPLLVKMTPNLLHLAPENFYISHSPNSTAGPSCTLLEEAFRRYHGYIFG
Description: Hex B protein (isolated from human placenta) was purchased from Sigma Co.
Both O-GlcNAcase and Hex B were subjected to Michaelis-Menton kinetic analysis to determine the kinetics of their enzymatic activity in the presence of absence of Compounds 1-5 and Compound ix, using 4-methylumbelliferyl-N-acetyl-β-D-glucosaminide (4MU-NAG; purchased from Sigma Co.) as the substrate (a fluorogenic substrate). The reaction conditions for each enzyme are shown below:
Hex B: reaction mixture (0.1 nM Hex B (200 μL), 50 mM NaH2PO4, 100 mM NaCl, 0.1% BSA, 0.05-1.5 mM substrate, pH 6.5) was incubated at 30° C. for 25 minutes. The reaction was terminated by addition of a 3× quenching buffer (200 mM sodium glycine buffer, pH 10.8). The enzyme activity was determined as described above.
(§1) To determine the effects of Compounds 1-5 and Compound ix on the kinetics of both enzymes, the enzyme reactions described above were performed in the presence of each compound at different concentrations. In these reactions, the substrate concentrations were three to five fold of the concentration used for determining KM (absent compounds) and the ratio between the enzyme and the compound was 0.1-0.5 nM to 0.3 nM-200 uM. The data thus obtained were analyzed by the Lineweaver-Burk plot. The K1 values were determined by the double reciprocal plot (1/V vs. 1/[S]). More specifically, the Km values for each enzyme in the presence of one of the test compounds first determined and these values were further plotted in view of the concentrations of the compound. K1 was determined by calculating the negative value of the resulting x-intercept. The selectivity of each compound was calculated by the formula: K1 O-GlcNAcase/K1 Hex B.

[1] = biological target: Bacteroids fragilis O-GlcNAcase (Bacteroides fragilis, UniProt Q5L8V6); experiment: Michaelis-Menten/Lineweaver-Burk kinetic inhibition of O-GlcNAcase with 4MU-NAG substrate; assay type: biochemical
Chain of Bacteroids fragilis O-GlcNAcase (Q5L8V6 entry or part of it): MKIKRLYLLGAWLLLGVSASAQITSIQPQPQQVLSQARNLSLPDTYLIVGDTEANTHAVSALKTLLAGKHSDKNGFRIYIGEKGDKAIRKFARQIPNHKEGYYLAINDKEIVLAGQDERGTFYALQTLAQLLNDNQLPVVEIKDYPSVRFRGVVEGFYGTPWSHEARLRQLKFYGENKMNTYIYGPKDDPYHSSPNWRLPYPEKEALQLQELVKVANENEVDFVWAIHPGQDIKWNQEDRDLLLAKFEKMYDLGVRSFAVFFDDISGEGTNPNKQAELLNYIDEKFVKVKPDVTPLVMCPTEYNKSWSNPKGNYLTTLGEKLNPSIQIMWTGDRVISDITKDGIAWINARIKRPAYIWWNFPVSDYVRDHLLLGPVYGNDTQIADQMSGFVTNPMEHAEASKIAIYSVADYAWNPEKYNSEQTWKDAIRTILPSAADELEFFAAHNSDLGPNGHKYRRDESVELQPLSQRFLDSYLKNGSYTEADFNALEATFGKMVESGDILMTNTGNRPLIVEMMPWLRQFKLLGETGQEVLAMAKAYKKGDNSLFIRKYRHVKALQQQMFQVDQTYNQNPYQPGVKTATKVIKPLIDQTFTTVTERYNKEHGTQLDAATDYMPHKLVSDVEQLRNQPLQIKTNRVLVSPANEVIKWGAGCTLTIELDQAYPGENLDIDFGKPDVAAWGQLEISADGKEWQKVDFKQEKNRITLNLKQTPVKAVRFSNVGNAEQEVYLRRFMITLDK
Description: Bacteroids fragilis O-GlcNAcase, which is highly homologous to human O-GlcNAcase, was prepared as follows. Based on the genome sequence of B. fragilis (NCTC 9343) as disclosed in GenBank accession no. CR626927 (Oct. 23, 2008), a DNA fragment encoding the B. fragilis O-GlcNAcse was amplified via polymerase chain reaction (PCR), using the primers of: 5′-[…]-3′ (SEQ ID NO:1) (forward primer) and 5′-[…]-3′ (SEQ ID NO:2) (reverse primer). The PCR product was cloned into pGEM-T Easy vector (Promega) via cloning sites Nde1 and Xho1 and then subcloned into pET21b vector to produce expression plasmid pOGA, which encodes a fusion protein including O-GlcNAcase and a His6 tag at the C-terminus
Plasmid pOGA was transformed into E. coli BL21 (DE3) cells and a positive transformant was cultured in Luria-Bertani (LB) medium with ampicillin (100 μg/mL) overnight. The E. coli culture, transferred to fresh LB medium, was incubated at 37° C. and, when A600 of the culture reached 0.6, isopropyl-β-D-thiogalactopyranoside (final conc: 250 μM) was added to induce expression of O-GlcNAcse. The induced cells were further cultured at 16° C. overnight, harvested, and disrupted to produce a cell lysate. Upon centrifugation, the supernatant thus obtained was loaded onto a nickel-affinity column. After elution, a fraction containing O-GlcNAcse was collected and the enzyme contained therein was further purified by gel filtration using a Superdex 6 column. See Dennis et al., Nat Struct Mol Biol 2006, 13: 365-71. The purified protein was concentrated using a 10 kDa-cutoff concentrator and dialyzed against 20 mM HEPES (pH 7.5).
The reaction conditions for each enzyme are shown below:
O-GlcNAcase: reaction mixture (0.5 nM O-GlcNAcase (200 μL) in 50 mM citric acid, 100 mM NaCl, 0.1% BSA, 0.05-1.5 mM substrate, pH 4.25) was incubated at 30° C. for 25 minutes. The enzyme activity at different time points was determined by measuring the levels of the fluorescent signals (excitation wavelength: 360 nm; emission wavelength: 460 nm) released from 4-methylumbelliferone, a product of the enzyme reaction.
as §1, with “In” for “To determine the effects of Compounds 1-5 and Compound ix on the kinetics of both enzymes, the enzyme reactions described above were performed in the presence of each compound at different concentrations. In”

## CC(=O)NC1CN(CCCCCCCNC(=O)CCCCC2SCC3NC(=O)NC32)C(CO)C(O)C1O (stereo not shown) [Compound 5]
Human HEX B; Table 1
  Ki: 0.0267 ± 0.00111 µM
Human HEX B; Table 2
  Ki: 0.0267 ± 0.00111 µM
[1]
  Ki: 69.6 ± 1.77 µM
[1]; Bacteroids fragilis O-GlcNAcase over human HEX B, Table 1
  Selectivity (KI O-GlcNAcase/KI HEX): 2,600
